# Results taken from US20260109695A1, “PEROXIREDOXIN 3 INHIBITORS AND METHODS OF USE FOR TREATING CANCER” (WAKE FOREST UNIVERSITY HEALTH SCIENCES, priority 2022, published 2026).
# pEC50: −log10 of the molar value.
# What was measured:
# [1] = tested on: human SK-OV-3 ovarian cancer cells; assay: Cellular Activity Assay (cytotoxicity, crystal violet); type: cell-based; conditions: SK-OV-3 cells, 48 hr treatment
# Text: (§1) To test the activity of compounds, two complimentary assays were used as described below. The Biochemical PRX3 Inhibition Assay tests the ability of each compound to crosslink PRX3 in a simple, in vitro system. In the Cellular Activity Assay, we are testing the ability of compounds to kill SK-OV-3 ovarian cancer cells.
# The Cellular Activity Assay measures the EC50 of each compound in human SK-OV-3 ovarian cancer cells TS to be taken into the cell, transported to the mitochondria, and crosslink PRX3.
# The cytotoxicity of compounds was measured as described in Nelson et al. (2021) Antioxidants (Basel) 10, 150; Cunniff et al. (2015) PloS one 10, e0127310; and Newick et al. (2012) PloS one 7, e39404. SK-OV-3 is an adherent, epithelial, adenocarcenoma cell line obtained from ATCC (ref #: HTB-77). SK-OV-3 cells are resistant to the commonly used chemotherapeutics, cis-platinum and doxorubicin. For this PRX3 crosslinking assay, SK-OV-3 cells were plated in a 96-well plate. After 24 h recovery, the cells were treated for 48 hr with multiple concentrations of each compound ranging from 0.1-100 μM.
# Cells were washed with PBS to remove dead cells and the remaining live cells were fixed with 3.0% formaldehyde and stained with 0.1% crystal violet. The amount of crystal violet was determined by reading the absorbance at 540 nm (crystal violet dye dissolved in 100% methanol) using a plate reader. The signal for crystal violet dye is proportional to the biomass of remaining live cells. GraphPad Prism9 software was used to calculate the effective inhibitory concentration (EC50) of test compounds. Results for each compound, are normalized to the amount of cells in control wells treated with the equivalent concentration of DMSO (negative control). TS or Compound B were included in each set of assays as a positive control.
# Solubility Assay = type: physicochemical; conditions: 20 mM HEPES, 100 mM NaCl, pH 7.5, 18-24 hours at ambient temperature
# Experimental: A 20 mM stock solution was made for each compound in DMSO. To measure solubility, 0.03-0.05 mL of the stock was added to 0.27 mL 20 mM HEPES, 100 mM NaCl, pH 7.5. The solution was mixed and rotated 18-24 hours at ambient temperature. The next day, solutions were centrifuged for 10 min at 20,000×g at 24° C. to remove insoluble, solid material. Next, 100 μL of the supernatant containing the soluble compound was added to 900 μL DMSO and High Performance Liquid Chromatography was performed as described in Table 1 and either HPLC gradient 1 (Table 2) for HPLC gradient 2 (Table 3). For each analog, a 200 μM standard and a 20 μM standard were prepared and run in parallel (standards were dissolved completely in 100% DMSO). The amount of compound in the experimental sample was calculated by comparing the area under the curve for compound peak to the area for the closest standard and correcting for dilution.
# purified human PRX3 = molecular target: T1, purified human PRX3 (Homo sapiens, UniProt P30048); assay: Biochemical PRX3 Inhibition Assay (crosslink by SDS-PAGE, mono-adduct by MALDI-TOF MS); conditions: 1-2 hr at 37° C.
# T1 construct: made in house
# T1 sequence (P30048 62-256): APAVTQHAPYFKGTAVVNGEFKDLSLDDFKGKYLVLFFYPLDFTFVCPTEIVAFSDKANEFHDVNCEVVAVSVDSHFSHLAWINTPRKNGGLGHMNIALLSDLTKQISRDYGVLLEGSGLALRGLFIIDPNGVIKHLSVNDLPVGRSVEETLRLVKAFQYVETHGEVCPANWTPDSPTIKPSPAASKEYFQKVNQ
# Experimental: as §1
# This assay tests the ability of each compound to form a covalent adduct with PRX3. The assay is performed as described in Nelson et al. (2021) Antioxidants (Basel) 10, 150; and Cunniff et al. (2015) PloS one 10, e0127310, and follows the appearance of non-reducible PRX3 crosslinks by SDS PAGE gel electrophoresis and follows the appearance of single PRX3 adducts by mass spectrometry. For this assay, purified human PRX3, hydrogen peroxide (the PRX3 substrate) and all the components required to enable PRX3 to catalytically cycle (thioredoxin-thioredoxin reductase-NAPDH system) are included (details below).
# The biochemical PRX3 Inhibition assay contains 100 µM PRX3, 50 µM human TRX2, […] mouse thioredoxin reductase, and a NADPH regenerating system composed of 3.2 mM glucose 6-phosphate, 3.2 U/ml glucose 6-phosphate dehydrogenase and 0.4 mM NADPH. Samples are incubated for 1-2 hr at 37° C. with either 0.2 mM TS (positive control), compounds or an equivalent volume of DMSO (negative control). During this incubation, hydrogen peroxide is added to induce turnover of PRX3. Reactions are stopped by the addition of a buffer containing 100 mM dithiolthreitol (to break disulfide bonds) and SDS (detergent to denature proteins). NADPH, Glucose 6-Phosphate, and glucose 6-phosphate dehydrogenase were purchased from Sigma Aldrich. PRX3, thioredoxin, and thioredoxin reductase were all purified to >98% purity in the Lowther laboratory according to protocols referenced in Nelson et al. (2021) Antioxidants (Basel) 10, 150; and Cunniff et al. (2015) PloS one 10, e0127310.
# To measure the amount of PRX3 crosslink, proteins in the reaction were separated by SDS-polyacrlyamide gel electrophoresis and stained for total protein using GelCode Blue (Life Technologies). The amount of unmodified PRX3 and TS-PRX3 crosslink was measured by densiometric analysis of the signal for the PRX3 band running at the MW of a PRX3 crosslink (−46 kDa) compared to the PRX3 signal at the MW of the un-modified PRX3 (˜23 kD).
# To measure covalent adduct formation on a single PRX3 monomer, each reaction was exchanged into a mass spectrometry compatible buffer containing 40 mM ammonium citrate, pH 8.3 made in HPLC water. Sample was mixed 1:1 with a matrix solution containing 30 mg/mL sinapinic acid in 70% (vol/vol) acetonitrile, 0.2% formic acid and spotted to onto the sample plate. PRX3 mass was measured by MALDI-TOF MS analysis on a Bruker Daltonics MALDI-TOF MS spectrometer. Spectra were analyzed in FLEXAnalysis Software. The intensity of the reduced PRX3 peak (SH) and intensity of the analog adduct peak was determined and corrected for background signal at the adduct peak in the DMSO control. The fraction of single analog adduct in the monomer peak was determined by dividing the intensity of the adduct peak by the summed intensity of the SH and adduct peaks.
# [2] = tested on: Enterococcus hirae (ATCC #10541); assay: Antimicrobial Activity Assay; type: cell-based
# Experimental: The overnight growth was then diluted into growth media to make a single solution of E. hirae with a final optical density at 600 nm=0.02 AU. A 20 mM stock solution of Thiostrepton in DMSO was made and used to make multiple dilutions of TS in DMSO. Each TS dilution (0.1 mL) was then added to a test tube containing 10 mL of the diluted E. hirae and grown at 37° C. overnight while shaking at 180 rpm. The next morning, each tube was visually inspected to determine if the cells grew. Final concentrations tested were 0.120, 0.090, 0.075, 0.060, 0.045, 0.030, and 0.015 μM TS. […] Three replicates were made on three separate days (n=9). […] For TS analogs, the dilute E. hirae was treated with 20 µM final concentration of each analog (three replicates each). […] DMSO was used as a positive control (complete cell growth) and 20 µM thiostrepton was used as a negative control.
# 578 cancer cells lines = conditions: of 578 cancer cells lines tested; cited from earlier work
# [3] = E. hirae, overnight at 37° C., n=9
smiles,measurement,setting,value
"C=C(NC(=O)C(=C)NC(=O)c1csc(C2=N[C@@H]3c4csc(n4)[C@H]4NC(=O)c5csc(n5)[C@H]([C@](C)(O)[C@@H](C)O)NC(=O)[C@H]5CSC(=N5)/C(=C/C)NC(=O)[C@H]([C@@H](C)O)NC(=O)c5csc(n5)[C@]3(CC2)NC(=O)[C@H](C)NC(=O)C(=C)NC(=O)[C@H](C)NC(=O)[C@H]([C@@H](C)CC)N[C@@H]2C=Cc3c([C@H](C)O)cc(nc3[C@H]2O)C(=O)O[C@@H]4C)n1)C(N)=O [Thiostrepton, reference compound]",pEC50,[1],5.00 to 6.00
same,solubility,Solubility Assay,+ (<0.1 mM)
same,PRX3 Inhibition (Crosslink + Mono-adduct),purified human PRX3,++ (50-90%)
same,TS concentrations at which complete growth was observed,[2]; [3],≤ 0.030 µM
same,TS concentrations at which no growth was observed,[2]; [3],≥ 0.045 µM
same,MIC,"[2]; Enterococcus hirae, ATCC10541, read-out: Antimicrobial Activity",0.02 to 0.2 µM
same,Number of tumor cells lines with meaningful efficacy,578 cancer cells lines,403
